Measured values as given in US20230295152A1 (SENDA BIOSCIENCES, INC., priority 2019, published 2023).

Molecular target: T1, AHR (Homo sapiens, UniProt P35869)
T1 construct: other cell line with a DRE-luciferase reporter stably transfected; endogenous in cells; host or cells: HepG2 AhR-Lucia reporter cells
T1 sequence (P35869 11-848): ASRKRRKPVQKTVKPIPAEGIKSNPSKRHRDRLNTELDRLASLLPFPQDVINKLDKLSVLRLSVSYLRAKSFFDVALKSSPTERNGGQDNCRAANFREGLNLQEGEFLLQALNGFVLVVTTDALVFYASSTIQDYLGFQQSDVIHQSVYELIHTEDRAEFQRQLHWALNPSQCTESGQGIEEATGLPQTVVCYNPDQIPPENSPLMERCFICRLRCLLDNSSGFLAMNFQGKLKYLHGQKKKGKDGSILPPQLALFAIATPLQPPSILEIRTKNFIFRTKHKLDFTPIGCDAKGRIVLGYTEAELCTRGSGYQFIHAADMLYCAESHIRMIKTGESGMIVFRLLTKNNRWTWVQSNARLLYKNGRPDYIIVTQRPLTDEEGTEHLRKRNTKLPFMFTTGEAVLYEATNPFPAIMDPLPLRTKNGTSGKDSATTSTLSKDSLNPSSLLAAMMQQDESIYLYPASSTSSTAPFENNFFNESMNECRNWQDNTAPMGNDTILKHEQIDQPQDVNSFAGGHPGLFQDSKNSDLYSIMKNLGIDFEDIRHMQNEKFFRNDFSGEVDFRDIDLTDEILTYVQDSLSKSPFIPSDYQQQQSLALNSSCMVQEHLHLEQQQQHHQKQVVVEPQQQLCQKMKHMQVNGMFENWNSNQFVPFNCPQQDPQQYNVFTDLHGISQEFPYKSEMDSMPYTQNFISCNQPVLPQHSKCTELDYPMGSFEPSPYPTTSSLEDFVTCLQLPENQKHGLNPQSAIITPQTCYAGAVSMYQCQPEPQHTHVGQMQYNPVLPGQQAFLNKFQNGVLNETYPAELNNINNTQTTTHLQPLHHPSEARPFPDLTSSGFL
Experiment: DRE-Luciferase Reporter Assay, HepG2 AhR-Lucia reporter cells
Type: cell-based
Details: with AHR activating ligand at EC50, read-out: HepG2-Luc IC50
How it was run: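 DRE-luciferase reporter cells (e.g. HepG2 AhR-Lucia, 20000 cells) treated with antagonist log dilutions from 100 uM, then an AHR agonist (e.g. TCDD, kynurenine, ITE, FICZ) at its EC50 added after 1 hr. Secreted luciferase measured after 24 or 48 h (QUANTI-Luc); IC50 = concentration halving luciferase activity.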

Compound | IC50 [nM]
O=c1c2cc(-c3ccc(Cl)cc3)nc(-c3cccnc3)c2ncn1[C@@H]1COC[C@H]1O [Compound 152, 6-(4-chlorophenyl)-3-((3R,4S)-4-hydroxytetrahydrofuran-3-yl)-8-(pyridin-3-yl)pyrido[3,4-d]pyrimidin-4(3H)-one] | < 100
CC(C)(O)Cn1cnc2c(-c3cn[nH]c3)nc(-c3ccc(C(F)(F)F)nc3)cc2c1=O [Compound 51] | < 100
C[C@@H](CO)n1cnc2c(-c3cnsc3)nc(-c3ccc(C(F)(F)F)nc3)cc2c1=O [Compound 55] | < 100
Cn1cc(-c2nc(-c3ccc(Cl)cc3)cc3c(=O)n([C@H]4COC[C@H]4O)cnc23)cn1 [Compound 92] | < 100
Cc1ncc(-c2cc3c(=O)n([C@@H](C)CO)cnc3c(-c3cccnc3)n2)s1 [Compound 89] | < 100
C[C@@H](CO)n1cnc2c(-n3ccnc3)nc(-c3ccc(C(F)(F)F)nc3)cc2c1=O [Compound 163, (S)-3-(1-hydroxypropan-2-yl)-8-(1H-imidazol-1-yl)-6-(6-(trifluoromethyl)pyridin-3-yl)pyrido[3,4-d]pyrimidin-4(3H)-one] | < 100
C[C@@H](CO)n1cnc2c(-c3cnn(C)c3)nc(-c3ccc(C4CC4)nc3)cc2c1=O [Compound 83] | < 100
C[C@@H](CO)n1cnc2c(N3CCCCC3)nc(-c3ccc(Cl)cc3)cc2c1=O [Compound 177, (S)-6-(4-chlorophenyl)-3-(1-hydroxypropan-2-yl)-8-(piperidin-1-yl)pyrido[3,4-d]pyrimidin-4(3H)-one] | < 100
Cn1cc(-c2nc(-c3ccc(C(F)(F)F)nc3)cc3c(=O)n(C[C@H](O)C(F)(F)F)cnc23)cn1 [Compound 111, (S)-8-(1-methyl-1H-pyrazol-4-yl)-3-(3,3,3-trifluoro-2-hydroxypropyl)-6-(6-(trifluoromethyl)pyridin-3-y1)pyrido[3,4-d]pyrimidin-4(3H)-one] | < 100
O=c1c2cc(-c3ccc(C4CC4)nc3)nc(-c3cccnc3)c2ncn1C[C@H](O)C(F)(F)F [Compound 120, (S)-6-(6-cyclopropylpyridin-3-yl)-8-(pyridin-3-yl)-3-(3,3,3-trifluoro-2-hydroxypropyl)pyrido[3,4-d]pyrimidin-4(3H)-one] | < 100
Cc1nc(-c2cc3c(=O)n([C@@H](C)CO)cnc3c(-c3cccnc3)n2)cs1 [Compound 183, (S)-3-(1-hydroxypropan-2-yl)-6-(2-methylthiazol-4-yl)-8-(pyridin-3-yl)pyrido[3,4-d]pyrimidin-4(3H)-one] | > 500
CC(C)(O)Cn1cnc2c(-c3cccnc3)nc(-c3ccc(C4CC4)nc3)cc2c1=O [Compound 81] | < 100
C[C@@H](CO)n1cnc2c(-c3cccnc3)nc(-c3ccc(C(F)(F)F)cc3)cc2c1=O [Compound 23] | < 100
O=c1c2cc(-c3ccc(C(F)(F)F)cn3)nc(-c3cccnc3)c2ncn1[C@H]1COC[C@@H]1O [Compound 139, 3-((3S,4R)-4-hydroxytetrahydrofuran-3-yl)-8-(pyridin-3-yl)-6-(5-(trifluoromethyl)pyridin-2-yl)pyrido[3,4-d]pyrimidin-4(3H)-one] | < 100
C[C@H](n1cnc2c(-c3cccnc3)nc(-c3cccnc3)cc2c1=O)C(C)(C)O [Compound 34] | < 100
O=c1c2cc(-c3ccc(OC(F)(F)F)cc3)nc(-c3cccnc3)c2ncn1C[C@H](O)C(F)(F)F [Compound 124, (S)-8-(pyridin-3-yl)-3-(3,3,3-trifluoro-2-hydroxypropyl)-6-(4-(trifluoromethoxy)phenyl)pyrido[3,4-d]pyrimidin-4(3H)-one] | < 100
O=c1c2cc(-c3ccc(C(F)(F)F)cn3)nc(-c3cccnc3)c2ncn1C[C@H](O)C(F)(F)F [Compound 104, (S)-8-(pyridin-3-yl)-3-(3,3,3-trifluoro-2-hydroxypropyl)-6-(5-(trifluoromethyl)pyridin-2-yl)pyrido[3,4-d]pyrimidin-4(3H)-one] | < 100
Cn1cc(-c2nc(-c3ccc(Cl)cc3)cc3c(=O)n([C@H]4COC[C@@H]4O)cnc23)cn1 [Compound 116] | < 100

Next, values leading:

IC50 [nM] | Compound
< 100 | O=c1c2cc(-c3ccc(C(F)(F)F)nc3)nc(-c3cccnc3)c2ncn1[C@H]1COC[C@H]1O [Compound 126, 3-((3S,4S)-4-hydroxytetrahydrofuran-3-yl)-8-(pyridin-3-yl)-6-(6-(trifluoromethyl)pyridin-3-yl)pyrido[3,4-d]pyrimidin-4(3H)-one]
< 100 | CC(C)(O)Cn1cnc2c(-c3cnsc3)nc(-c3ccc(C(F)(F)F)cn3)cc2c1=O [Compound 101, 3-(2-hydroxy-2-methylpropyl)-8-(isothiazol-4-yl)-6-(5-(trifluoromethyl)pyridin-2-yl)pyrido[3,4-d]pyrimidin-4(3H)-one]
< 100 | C[C@H](O)Cn1cnc2c(-c3cnn(C)c3)nc(-c3ccc(C(F)(F)F)nc3)cc2c1=O [Compound 109, (S)-3-(2-hydroxypropyl)-8-(1-methyl-1H-pyrazol-4-yl)-6-(6-(trifluoromethyl)pyridin-3-yl)pyrido[3,4-d]pyrimidin-4(3H)-one]
< 100 | Cn1cc(-c2nc(-c3ccc(C(F)(F)F)nc3)cc3c(=O)n([C@@H]4COC[C@H]4O)cnc23)cn1 [Compound 115, 3-((3R,4S)-4-hydroxytetrahydrofuran-3-y1)-8-(1-methyl-1H-pyrazol-4-y1)-6-(6-(trifluoromethyl)pyridin-3-yl)pyrido[3,4-d]pyrimidin-4(3H)-one]
< 100 | C[C@@H](CO)n1cnc2c(-n3ccnc3)nc(-c3ccc(C(F)(F)F)cn3)cc2c1=O [Compound 162, (S)-3-(1-hydroxypropan-2-yl)-8-(1H-imidazol-1-yl)-6-(5-(trifluoromethyl)pyridin-2-yl)pyrido[3,4-d]pyrimidin-4(3H)-one]
< 100 | C[C@H](O)Cn1cnc2c(-c3cccnc3)nc(-c3ccc(C(F)(F)F)cn3)cc2c1=O [Compound 143, (S)-3-(2-hydroxypropyl)-8-(pyridin-3-yl)-6-(5-(trifluoromethyl)pyridin-2-yl)pyrido[3,4-d]pyrimidin-4(3H)-one]
< 100 | Cn1cc(-c2nc(-c3cnc(C(F)(F)F)nc3)cc3c(=O)n(CC(C)(C)O)cnc23)cn1 [Compound 99]
< 100 | CC(C)(O)Cn1cnc2c(-c3cnsc3)nc(-c3ccc(C(F)(F)F)nc3)cc2c1=O [Compound 54]
< 100 | C[C@@H](O)Cn1cnc2c(-c3cccnc3)nc(-c3ccc(C(F)(F)F)cn3)cc2c1=O [Compound 144, (R)-3-(2-hydroxypropyl)-8-(pyridin-3-yl)-6-(5-(trifluoromethyl)pyridin-2-yl)pyrido[3,4-d]pyrimidin-4(3H)-one]
< 100 | O=c1c2cc(-c3ccc(C(F)(F)F)nc3)nc(-c3cccnc3)c2ncn1C[C@@H](O)C(F)(F)F [Compound 122, (R)-8-(pyridin-3-yl)-3-(3,3,3-trifluoro-2-hydroxypropyl)-6-(6-(trifluoromethyl)pyridin-3-yl)pyrido[3,4-d]pyrimidin-4(3H)-one]
< 100 | CC(C)(O)Cn1cnc2c(-n3ccnc3)nc(-c3ccc(C(F)(F)F)cn3)cc2c1=O [Compound 160, 3-(2-hydroxy-2-methylpropyl)-8-(1H-imidazol-1-yl)-6-(5-(trifluoromethyl)pyridin-2-yl)pyrido[3,4-d]pyrimidin-4(3H)-one]
< 100 | O=c1c2cc(-c3ccc(C(F)(F)F)cn3)nc(-c3cccnc3)c2ncn1[C@@H]1COC[C@H]1O [Compound 140, 3-((3R,4S)-4-hydroxytetrahydrofuran-3-yl)-8-(pyridin-3-yl)-6-(5-(trifluoromethyl)pyridin-2-yl)pyrido[3,4-d]pyrimidin-4(3H)-one]
< 100 | CNC(=O)[C@H](C)n1cnc2c(-c3cccnc3)nc(-c3ccc(C(F)(F)F)nc3)cc2c1=O [Compound 156, (S)—N-methyl-2-(4-oxo-8-(pyridin-3-yl)-6-(6-(trifluoromethyl)pyridin-3-yl)pyrido[3,4-d]pyrimidin-3(4H)-yl)propanamide]
< 100 | C[C@@H](CO)n1cnc2c(-c3cccnc3)nc(-c3cnc(C(F)(F)F)nc3)cc2c1=O [Compound 86]
< 100 | C[C@@H](O)Cn1cnc2c(-c3cccnc3)nc(-c3ccc(C(F)(F)F)nc3)cc2c1=O [Compound 112, (R)-3-(2-hydroxypropyl)-8-(pyridin-3-yl)-6-(6-(trifluoromethyl)pyridin-3-yl)pyrido[3,4-d]pyrimidin-4(3H)-one]
< 100 | Cn1cc(-c2nc(-c3ccc(C4CC4)nc3)cc3c(=O)n(C[C@H](O)C(F)(F)F)cnc23)cn1 [Compound 136, (S)-6-(6-cyclopropylpyridin-3-yl)-8-(1-methyl-1H-pyrazol-4-yl)-3-(3,3,3-trifluoro-2-hydroxypropyl)pyrido[3,4-d]pyrimidin-4(3H)-one]
